Data taken from patent publication US20130184337A1, “SODIUM ASCORBATE STIMULATION OF ELASTOGENESIS” (THE HOSPITAL FOR SICK CHILDREN, priority 2012, published 2013).
“Also recorded” adds a separate entry of the source.

Columns and labels:
[1] = test system: explants of dermal stretch marks; experiment: Organ culture of skin explants (Movat pentachrome morphometry, insoluble elastin); format: cell-based, human; conditions: 200 μM, 10-day-long daily treatment
Method: The parallel quadruplicate explants from each experimental group were additionally maintained in the presence 2 μCi of [3H]-valine/ml and then subjected to the assay of insoluble elastin. The parallel explants from each experimental groups were also evaluated after pentachrome Movat's staining which allows for clear marking of elastic fibers. In each experimental group, 50 sections derived from quadruplicate explants were analyzed.

insulin receptor = experiment: Insulin receptor phosphorylation (immuno-precipitation, anti-phospho-tyrosine Western blot); format: cell-based, human; conditions: 100 μM SA, basic or insulin-induced
Method: (§1) At the end of each experiment cells were submerged in the lysis buffer containing a broad-range phosphatase inhibitor. The polyclonal antibodies recognizing either the β subunits of the IGF-IR or the β subunit of the insulin receptor were immobilized on separate sets of the IgG-bearing magnetic beads (Invitrogen Canada Inc, Burlington, ON) and then incubated for 1 hour with the aliquots of the cell lysates containing 400 μg of protein as described in the manufacturer protocol. The beads bearing the resulting immuno-precipitation products were re-suspended in sample buffer and the released proteins were resolved with SDS-PAGE and subjected to Western blotting with a monoclonal anti-p-Tyr (PY99) antibody from Santa Cruz Biotechnology Inc. (Santa Cruz, Calif.) and then with HRP-conjugated goat anti-mouse secondary antibody.

[2] = test system: normal dermal fibroblasts; experiment: Elastic fiber deposition (immuno-staining morphometry, [3H]-valine insoluble elastin) in monolayer cultures; format: cell-based, human
Method: (§2) Cell Cultures—Fibroblasts initially grew out from the explants of these full thickness skin biopsies and were maintained. The primary cultures of fat-derived fibroblasts obtained from Thermogenesis (Rancho Cordova, Calif.) were also tested. In all described experiments, 2-4 passages of both kinds of fibroblasts were used. In experiments aimed at assessing ECM production, cells were initially plated at a concentration of 100,000 cells/dish.
(§3) Immuno-staining—All cultures maintained in the presence and absence of indicated reagents were either fixed in cold 100% methanol at −20° C. (for detection of elastin) or in 4% paraformaldehyde at room temperature (for detection of collagen I). The multiple parallel cultures were then incubated with 10 μg/ml of polyclonal antibody to tropoelastin (Elastin Products, Owensville, Mich.), or polyclonal antibody to collagen type I (Chemicon, Temecula, Calif.). Cultures were then incubated with the respective fluorescein-conjugated goat anti-rabbit, goat anti-mouse, or rabbit anti-goat secondary antibodies. Nuclei were counterstained with propidium iodide (Sigma, Sigma, St. Louis, Mo.). All of the cultures were then examined with a Nikon Eclipse E1000 microscope attached to a cooled CCD camera (QImaging, Retiga EX) and analyzed by the computer-generated morphometric analysis system (Image-Pro Plus software, Media Cybernetics, Silver Springs, Md.) as previously described.
Quantitative Assays of Insoluble Elastin—Fibroblasts were grown to confluency in 35-mm culture dishes (100,000 cells/dish). Next, 2 μCi of [3H]-valine/ml (Amersham Biosciences Ltd. Oakville, Canada), were added to each dish along with or without the indicated treatments. At the end of each experiment, the levels of metabolically labeled NaOH-insoluble elastin present in individual cultures were assayed and normalized per their DNA content.

IGF-1 receptor = target: T1, IGF-1 receptor (Homo sapiens, UniProt P08069); experiment: IGF-1R phosphorylation (immuno-precipitation, anti-phospho-tyrosine Western blot); format: cell-based; conditions: for levels of IGF-1R phosphorylation: 100 μM SA alone
T1 construct: immuno-precipitated with antibody to β subunit of IGF-1R and detected by Western blotting with anti-phospho-tyrosine antibody; endogenous in cells; host or cells: cultured dermal fibroblasts
Method: as §1

[3] = test system: normal dermal fibroblasts; experiment: Collagen fiber deposition (immuno-staining of collagen type I, morphometry); format: cell-based, human; conditions: 100 μM, 24-hour-old cultures, 5% FBS
Method: as §2, with “cells/dish. Confluent cultures were then maintained either in serum-free medium (DMEM) or in medium supplemented with 5% FBS in the presence of different reagents that were added 1 hour before treatments with SA.” for “cells/dish.”
as §3

T1 sequence (P08069 741-1367 limits assumed): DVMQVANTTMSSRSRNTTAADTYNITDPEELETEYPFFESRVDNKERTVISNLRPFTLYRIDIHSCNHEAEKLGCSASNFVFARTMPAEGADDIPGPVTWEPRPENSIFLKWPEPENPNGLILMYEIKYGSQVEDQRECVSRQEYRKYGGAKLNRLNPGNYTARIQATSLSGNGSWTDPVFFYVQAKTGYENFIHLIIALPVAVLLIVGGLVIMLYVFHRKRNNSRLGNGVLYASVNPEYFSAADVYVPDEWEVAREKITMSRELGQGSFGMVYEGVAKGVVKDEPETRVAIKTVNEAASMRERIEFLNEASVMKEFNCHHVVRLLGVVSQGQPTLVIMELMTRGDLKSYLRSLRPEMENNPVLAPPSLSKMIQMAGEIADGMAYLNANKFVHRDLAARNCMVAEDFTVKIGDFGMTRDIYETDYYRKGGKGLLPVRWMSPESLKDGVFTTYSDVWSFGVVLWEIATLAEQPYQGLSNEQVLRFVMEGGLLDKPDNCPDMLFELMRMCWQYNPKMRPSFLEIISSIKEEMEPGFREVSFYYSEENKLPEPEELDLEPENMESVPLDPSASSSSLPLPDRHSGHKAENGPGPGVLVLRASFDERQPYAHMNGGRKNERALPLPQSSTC
T1 sequence (P08069 31-736 partner limits assumed): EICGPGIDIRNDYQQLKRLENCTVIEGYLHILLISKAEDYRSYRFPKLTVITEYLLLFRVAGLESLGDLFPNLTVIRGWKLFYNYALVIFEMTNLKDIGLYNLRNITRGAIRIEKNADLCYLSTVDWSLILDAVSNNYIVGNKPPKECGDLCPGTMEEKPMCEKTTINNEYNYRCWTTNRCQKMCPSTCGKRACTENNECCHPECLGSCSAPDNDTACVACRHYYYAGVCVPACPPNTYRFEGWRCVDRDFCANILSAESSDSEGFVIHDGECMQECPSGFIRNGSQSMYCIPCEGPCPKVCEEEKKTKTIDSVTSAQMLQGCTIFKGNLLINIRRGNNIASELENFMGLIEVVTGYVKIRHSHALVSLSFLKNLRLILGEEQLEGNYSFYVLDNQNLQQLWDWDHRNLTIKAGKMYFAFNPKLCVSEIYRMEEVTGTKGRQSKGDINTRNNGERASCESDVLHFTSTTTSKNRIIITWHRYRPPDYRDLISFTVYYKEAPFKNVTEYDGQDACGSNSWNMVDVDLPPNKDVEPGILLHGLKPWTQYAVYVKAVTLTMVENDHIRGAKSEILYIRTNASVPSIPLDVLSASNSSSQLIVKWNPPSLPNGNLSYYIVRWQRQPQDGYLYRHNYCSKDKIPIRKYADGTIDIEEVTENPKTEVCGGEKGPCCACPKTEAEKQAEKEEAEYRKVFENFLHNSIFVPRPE

O=C1O[C@H]([C@@H](O)CO)C([O-])=C1O.[Na+] [SA, (+)-sodium L-ascorbate]
elastogenesis [1]: restored the practically non-existent elastogenesis
phosphorylation of insulin receptor (insulin receptor): did not induce heightened phosphorylation; also recorded: does not enhance basic or insulin-induced phosphorylation of insulin receptor
production of immuno-detectable elastic fibers ([2]; 50 μM to 200 μM, 24-hour-old cultures, 5% FBS): significantly stimulated production of immuno-detectable elastic fibers; also recorded: upregulate production of elastic fibers
elastin deposition, SA added to IGF-1 ([2]; 100 μM SA added to 50 ng/ml IGF-1): significantly up-regulated the levels of elastin deposition
elastogenesis, SA added to dexamethasone ([2]; 100 μM SA added to 1 μM dexamethasone): did not further enhance the increase in elastogenesis
elastogenesis / net deposition of new elastic fibers ([2]; 100 μM alone, 24 hours, 5% FBS): remarkable up-regulation in the net deposition of new elastic fibers; also recorded: similarly strong elastogenic effects as treatment with 50 ng/ml of exogenous IGF-1; also recorded: upregulates elastogenesis only in cultures of dermal fibroblasts maintained in media containing 5% FBS
deposition of elastic fibers ([2]; 400 μM, 24-hour-old cultures, 5% FBS): did not further stimulate deposition of elastic fibers
elastogenesis ([2]; 800 μM, 24-hour-old cultures, 5% FBS): clear inhibition of elastogenesis; also recorded: inhibits elastogenesis
elastogenic effects in serum-free medium ([2]; SA, 18-24 hour-old cultures, serum-free medium): could not be observed in cultures maintained in serum-free medium
levels of IGF-1R phosphorylation (IGF-1 receptor; medium with FBS): remarkably enhanced levels of IGF-1R phosphorylation; also recorded: enhances the level of phosphorylation of the IGF-1R
levels of IGF-1R phosphorylation (IGF-1 receptor; serum-free medium): did not reveal any increase in IGF-1R phosphorylation
levels of IGF-1-induced IGF-1R phosphorylation (IGF-1 receptor; 100 μM SA plus 50 ng/ml IGF-1, both tested media): significantly enhanced the levels of phosphorylated IGF-IR; also recorded: enhances levels of IGF-1-induced IGF-IR phosphorylation in both tested media
deposition of immuno-detected collagen fibers [3]: more potent up-regulation in the deposition of immuno-detected collagen fibers than 100 μM AA; also recorded: more potent upregulation in collagen fibers deposition than 100 μM AA
